From patent US9109048B2, “Inhibition of tumor growth” (priority 1998, dated 2015)
Ends that are not written are not given here.

Tests used:
[1] = test system: Escherichia coli ATCC 25922; experiment: MIC (minimum inhibitory concentration) test, microdilution; assay type: cell-based
Method: (§1) The bacterial strains used were: Escherichia coli ATCC 25922 and Staphylococcus aureus ATCC 25923. All strains were stored at −70° C. The bacteria were grown in 2% Bacto Peptone water (Difco 1807-17-4). All tests were performed with bacteria in mid-logarithmic growth phase. Determination of the minimum inhibitory concentration (MIC) of the peptides for bacterial strains were performed in 1% Bacto Peptone water. A standard microdilution technique with an inoculum of 2×10^6 CFU/ml was used. All assays were performed in triplets. Since the peptides are positively charged and therefore could adhere to the plastic wells, we controlled the actual concentration of the peptides in the solution by HPLC. There was no difference between the concentration of the peptides before or after adding the solution to the plastic wells.

[2] = test system: Staphylococcus aureus ATCC 25923; experiment: as above; assay type: cell-based
Method: as §1

[3] = test system: Meth A cells (murine sarcoma cell line); experiment: Cytotoxicity on Meth A cells, MTT method
Method: Peptide solutions (0.1 ml) were added and the plates incubated at 37° C. for 30 minutes, 4 hours or 24 hours. The cytotoxicity was measured using the MTT method (Mosmann et al., J. Immunol. (1986) 136, 2348-2357).
Cells in the growth phase were harvested and washed in fresh medium and injected subcutaneously into the abdominal region of the mice.
The cytotoxic effect of the peptides on different murine and human tumor cells were measured using the MTT method (Mosmann et al., J. Immunol. (1986) 136, 2348-2357).
MTT is a soluble tetrazolium salt yielding a yellow solution when prepared in media or salt solutions lacking phenol red. Dissolved MTT is converted to an insoluble purple formazan by cleavage of the tetrazolium ring by dehydrogenase enzymes. This water insoluble formazan can be solubilized using isopropanol or other solvents and the dissolved material is measured spectrophotometrically. The absorbance was measured as a function of concentration of converted dye.
Cells were maintained in […] medium containing 10% FBS, 1% L-glutamine and 0.1% penicillin and streptomycin. Cells to be used in the assay were grown to confluency, trypsinated and split to single cell suspension, counted and centrifuged at 1500 rpm for 10 min. […][…] of cell suspension was transferred to each well on a 96-well microtiter plate. The cells were stimulated by adding […] of various concentrations of peptides diluted with assay medium to each well. The final concentrations of peptide were for example: 5, 10, 20, 40, 60, 80, 100, and 200 mg/ml. […] As a negative control only medium was added to the cells, and as a positive control (100% killing) 1% triton X-100 was added. Following an incubation period of 4 h., 20 ml MTT dissolved in PBS at a concentration of 5 mg/ml was added to each well, and the plate was incubated further for 2 h. 130 ml of the supernatant were then removed and […] acid alcohol (0.04-0.1 N HCl in isopropanol) added to each well to dissolve the dark blue crystals. The plate was placed on a shaker for 1 h and read spectrophotometrically at 590 nm in a microtiterplate reader using the Softmaxâ program.

[4] = test system: human red blood cells; experiment: Hemolytic assay; assay type: cell-based; conditions: red cells of human
Method: The hemolytic activities of the peptides were determined using fresh human red blood cells. 8 ml blood was taken from a healthy person. 4 ml blood was transferred to a polycarbonate tube containing heparin to a final concentration of 10 U/ml, and the remaining 4 ml blood was transferred to a glass tube containing EDTA with final concentration of 15% EDTA. The erythrocytes were isolated from heparin-treated blood by centrifugation in 1500 rpm for 10 min and washed three times with phosphate-buffered saline (PBS) to remove plasma and buffy coat. The cell pellet was resuspended in PBS to make the final volume of 4 ml. The peptide was diluted to a concentration of 2 mg/ml and 0.1 mg/ml. The peptide was further diluted to the concentrations as stated in Table 1. For each tube PBS was added first, then RBCs and peptide solutions. The hematocrit in the blood treated with EDTA was determined after 30 min with Sysmex K-1000, and the resuspended RBCs were diluted into 10% hematocrit. RBCs in PBS (1%) with and without peptides (Table 18) were incubated in a shaker at 37° for 1 hour and then centrifuged at 4000 rpm for 5 min. The supernatant were carefully transferred to new polycarbonate tubes and the absorbance of the supernatant was measured at 540 nm. Baseline hemolysis was hemoglobin released in the presence of PBS, and 100% hemolysis was hemoglobin released in the presence of 0.1% Triton X-100.

[5] = test system: MRSA (methicillin resistant S. aureus); assay type: cell-based; conditions: Table 15
Method: as §1
Table 15 below gives the antibacterial activity and toxicity data for some preferred peptides of the invention. MRSA is methicillin resistant S. aureus and MRSE is methicilin resistant S. epidermidis.

[6] = Table 7, in µg/mL (unit assumed)

Row | Substance | MIC E. coli ([1]; ATCC 25922) | MIC S. aureus ([2]; ATCC 25923) | Meth A IC 50 ([3]; 4 h) [mg/L] | further results
1 | H-GIGKFLHSAKKFGKAFVGEIMNS-OH [Mag2, reference compound] | – | – | – | MIC E. coli [1, 6]: 20; MIC E. coli ([1]; Table 11): 20 µg/mL; MIC S. aureus [2, 6]: >200; MIC S. aureus ([2]; Table 11): >100 µg/mL; Meth A IC 50 ([3]; Table 11, peptide required to kill 50% of Meth A cells): 100 mg/L
2 | H-GIGKFLKKARKFGRAFVRILKKG-OH [Tosmag, reference compound] | 8 µg/mL | 8 µg/mL | 18 | –
3 | H-KMASKAGKIAGKIAKVALKAL-NH2 [MSI 24, reference compound] | 5 µg/mL | 5 µg/mL | >100 | –
4 | H-KVALKALKVALKALKVALKAL-NH2 [MSI 20, reference compound] | – | – | >100 | –
5 | KMASKAGKIAWKIAKVALKAL-NH2 (C-terminus assumed) [MSI 24 W11] | 5 µg/mL | 2.5 µg/mL | 24 | –
6 | KMASKAWKIAGKIAKVALKAL-NH2 (C-terminus assumed) [MSI 24 W7] | 5 µg/mL | 5 µg/mL | 26 | –
7 | KVALKWLKVALKALKVALKAL-NH2 (C-terminus assumed) [MSI 20 W6] | – | – | 22 | –
8 | Linear LFB (17-41) modified with Pmc: Linear LFB (17-41) modified with Pmc (FKCRRWQWRMKKLGAPSITCVRRAF; cysteine pairing not given here; also: modified with Pmc group, site not given here; UniProt P24627 36-60, looked up, fragment) | – | – | – | cytotoxic effect on Meth A cells compared with another peptide [3]: slightly more effective than Pmc modified LFB 17-31
9 | PAWRKARRWAWRMKKLAA-OH [LFB 14-31 A2,6,10,17R4] | 13.1 µM | 8.8 µM | – | MIC E. coli ([1]; Table 8): 30 µg/mL; MIC E. coli ([1]; Table 15): 30.0 µg/mL; MIC S. aureus ([2]; Table 8): 20 µg/mL; MIC S. aureus ([2]; Table 15): 20.0 µg/mL; EC 50 (toxicity, hemolysis) [4]: >1000 mg/L
10 | YRWWRWARRW-NH2 [LFM 17-26 A7R2,8,9W3,4, 10Y1NH2] | – | – | – | MIC E. coli ([1]; Table 12): 10 µg/mL; MIC E. coli ([1]; Table 15): 10.0 µg/mL; MIC S. aureus ([2]; Table 15): 1.0 µg/mL; MIC MRSA [5]: 2.5 mg/L
